Earlier results, collected in patent US7799760B2 (Centro de Ingenieria Genetica y Biotecnologia, priority 2001, dated 2010).

Test system: chronic neuropathic diabetic ulcers

Becaplermin
rate of recurrence (in the third month): about 30% | efficacy (multicenter, controlled, randomized clinical trial in the USA, neuropathic foot ulcers with normal arterial blood supply, topical gel): 50%
